{
  "source": "ChEMBL document CHEMBL4402573",
  "about": "“Discovery and Optimization of α-Mangostin Derivatives as Novel PDE4 Inhibitors for the Treatment of Vascular Dementia” (J Med Chem, 2020)",
  "key": {"RAW264.7": {"test_system": "RAW264.7", "experiment": "Antiinflammatory activity in mouse RAW264.7 assessed as reduction in LPS-induced NO production incubated for 24 hrs by Griess method", "assay_type": "functional, cell-based"}, "[1]": {"experiment": "AUC(0 to t) in Sprague-Dawley rat at 2.5 mg/kg, iv measured upto 24 hrs by LC-MS/MS analysis", "assay_type": "ADME, organism-based", "set-up": "dose 2.5 mg/kg, time < 24 hr, route intravenous", "details": "in vivo"}, "[2]": {"experiment": "Cmax in Sprague-Dawley rat at 2.5 mg/kg, iv measured upto 24 hrs by LC-MS/MS analysis", "assay_type": "ADME, organism-based", "set-up": "dose 2.5 mg/kg, route intravenous", "details": "in vivo"}, "[3]": {"experiment": "Toxicity in Beagle dog assessed as animals exhibiting emesis at 5 mg/kg, po observed for 180 mins", "assay_type": "organism-based, Canis lupus familiaris", "details": "in vivo, 3 h"}, "Homo sapiens [4]": {"species_on_record": "Homo sapiens", "experiment": "Selectivity index, ratio of IC50 for human PDE2A (580 to 919 residues) expressed in Escherichia coli BL21 codon-plus cells to IC50 for human PDE4D2 (86 to 413 residues) expressed in Escherichia coli BL21 codon-plus cells"}, "[5]": {"experiment": "AUC(0 to infinity) in Sprague-Dawley rat at 2.5 mg/kg, iv measured upto 24 hrs by LC-MS/MS analysis", "assay_type": "ADME, organism-based", "set-up": "dose 2.5 mg/kg, route intravenous, time infinity", "details": "in vivo"}, "Homo sapiens [6]": {"species_on_record": "Homo sapiens", "experiment": "Selectivity index, ratio of IC50 for human PDE3A (679 to 1087 residues) expressed in Escherichia coli BL21 codon-plus cells to IC50 for human PDE4D2 (86 to 413 residues) expressed in Escherichia coli BL21 codon-plus cells"}, "Homo sapiens [7]": {"species_on_record": "Homo sapiens", "experiment": "Selectivity index, ratio of IC50 for human PDE7A1 (130 to 482 residues) expressed in Escherichia coli BL21 codon-plus cells to IC50 for human PDE4D2 (86 to 413 residues) expressed in Escherichia coli BL21 codon-plus cells"}, "[8]": {"experiment": "Half life in Sprague-Dawley rat at 2.5 mg/kg, iv measured upto 24 hrs by LC-MS/MS analysis", "assay_type": "ADME, organism-based", "details": "in vivo"}, "Homo sapiens [9]": {"species_on_record": "Homo sapiens", "experiment": "Selectivity index, ratio of IC50 for human PDE10A2 (449 to 770 residues) expressed in Escherichia coli BL21 codon-plus cells to IC50 for human PDE4D2 (86 to 413 residues) expressed in Escherichia coli BL21 codon-plus cells"}, "Mus musculus [10]": {"test_system": "Mus musculus", "experiment": "Anti-VaD activity against UCCAO-induced spatial memory deficient C57BL/6J mouse model assessed as improvement in spatial learning and memory by measuring increase in latency time at 10 mg/kg, po administered for 21 days by passive avoidance test", "assay_type": "functional, organism-based"}, "[11]": {"experiment": "Toxicity in Beagle dog assessed as animals exhibiting emesis at 10 mg/kg, po observed for 180 mins", "assay_type": "organism-based, Canis lupus familiaris", "details": "in vivo, 3 h"}, "[12]": {"experiment": "Tmax in Sprague-Dawley rat at 5 mg/kg, po measured upto 24 hrs by LC-MS/MS analysis", "assay_type": "ADME, organism-based", "details": "in vivo"}, "[13]": {"biological_target": "High affinity cGMP-specific 3',5'-cyclic phosphodiesterase 9A (Homo sapiens, UniProt O76083)", "experiment": "Inhibition of human PDE9A2 (181 to 506 residues) expressed in Escherichia coli BL21 codon-plus cells using [3H]cGMP as substrate incubated for 15 mins by liquid scintillation counting method"}, "Homo sapiens [14]": {"species_on_record": "Homo sapiens", "experiment": "Selectivity index, ratio of IC50 for human PDE9A2 (181 to 506 residues) expressed in Escherichia coli BL21 codon-plus cells to IC50 for human PDE4D2 (86 to 413 residues) expressed in Escherichia coli BL21 codon-plus cells"}, "Homo sapiens [15]": {"species_on_record": "Homo sapiens", "experiment": "Selectivity index, ratio of IC50 for human PDE1B (10 to 487 residues) expressed in Escherichia coli BL21 codon-plus cells to IC50 for human PDE4D2 (86 to 413 residues) expressed in Escherichia coli BL21 codon-plus cells"}, "Cytochrome P450 2B6": {"biological_target": "Cytochrome P450 2B6 (Homo sapiens, UniProt P20813)", "sequence (P20813 whole entry)": "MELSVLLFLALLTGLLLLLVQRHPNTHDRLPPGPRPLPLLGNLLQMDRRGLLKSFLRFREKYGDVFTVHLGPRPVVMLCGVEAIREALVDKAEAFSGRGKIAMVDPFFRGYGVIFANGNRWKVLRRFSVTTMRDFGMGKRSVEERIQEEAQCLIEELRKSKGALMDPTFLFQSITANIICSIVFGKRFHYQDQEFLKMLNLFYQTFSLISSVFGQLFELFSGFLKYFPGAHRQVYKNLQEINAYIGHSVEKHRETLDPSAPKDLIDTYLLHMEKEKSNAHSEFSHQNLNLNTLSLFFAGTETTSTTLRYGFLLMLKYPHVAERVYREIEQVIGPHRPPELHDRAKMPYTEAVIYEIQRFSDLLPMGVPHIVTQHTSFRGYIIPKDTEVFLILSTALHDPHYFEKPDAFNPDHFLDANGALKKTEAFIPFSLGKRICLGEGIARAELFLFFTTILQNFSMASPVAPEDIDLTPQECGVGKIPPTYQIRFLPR", "experiment": "Inhibition of human CYP2B6", "assay_type": "ADME"}, "[16]": {"biological_target": "cAMP and cAMP-inhibited cGMP 3',5'-cyclic phosphodiesterase 10A (Homo sapiens, UniProt Q9Y233)", "experiment": "Inhibition of human PDE10A2 (449 to 770 residues) expressed in Escherichia coli BL21 codon-plus cells using [3H]cAMP as substrate incubated for 15 mins followed by substrate addition by liquid scintillation counting method"}, "[17]": {"biological_target": "High affinity 3',5'-cyclic-AMP phosphodiesterase 7A (Homo sapiens, UniProt Q13946)", "experiment": "Inhibition of human PDE7A1 (130 to 482 residues) expressed in Escherichia coli BL21 codon-plus cells using [3H]cAMP as substrate incubated for 15 mins by liquid scintillation counting method"}, "[18]": {"experiment": "AUC(0 to infinity) in Sprague-Dawley rat at 5 mg/kg, po measured upto 24 hrs by LC-MS/MS analysis", "assay_type": "ADME, organism-based", "set-up": "dose 5 mg/kg, time infinity, route oral", "details": "in vivo"}, "[19]": {"experiment": "Oral bioavailability in Sprague-Dawley rat at 5 mg/kg measured upto 24 hrs by LC-MS/MS analysis", "assay_type": "ADME, organism-based", "details": "in vivo"}, "Mus musculus [20]": {"test_system": "Mus musculus", "experiment": "Anti-VaD activity against UCCAO-induced spatial memory deficient C57BL/6J mouse model assessed as improvement in spatial learning and memory by measuring increase in frequency of platform area crossings at 10 mg/kg, po administered for 21 days by Morris water maze test", "assay_type": "functional, organism-based"}, "[21]": {"experiment": "Inhibition of human PDE4D7 (1 to 748 residues) expressed in Escherichia coli BL21 codon-plus cells using [3H]cAMP as substrate incubated for 15 mins by liquid scintillation counting method"}, "Homo sapiens [22]": {"species_on_record": "Homo sapiens", "experiment": "Selectivity index, ratio of IC50 for human PDE5A1 (535 to 860 residues) expressed in Escherichia coli BL21 codon-plus cells to IC50 for human PDE4D2 (86 to 413 residues) expressed in Escherichia coli BL21 codon-plus cells"}, "[23]": {"experiment": "Protein binding in rat plasma at 1 uM by LC-MS/MS analysis", "assay_type": "ADME, cell-free", "details": "read-out: PPB"}, "[24]": {"biological_target": "Voltage-gated inwardly rectifying potassium channel KCNH2 (Homo sapiens, UniProt Q12809)", "sequence (Q12809 whole entry)": "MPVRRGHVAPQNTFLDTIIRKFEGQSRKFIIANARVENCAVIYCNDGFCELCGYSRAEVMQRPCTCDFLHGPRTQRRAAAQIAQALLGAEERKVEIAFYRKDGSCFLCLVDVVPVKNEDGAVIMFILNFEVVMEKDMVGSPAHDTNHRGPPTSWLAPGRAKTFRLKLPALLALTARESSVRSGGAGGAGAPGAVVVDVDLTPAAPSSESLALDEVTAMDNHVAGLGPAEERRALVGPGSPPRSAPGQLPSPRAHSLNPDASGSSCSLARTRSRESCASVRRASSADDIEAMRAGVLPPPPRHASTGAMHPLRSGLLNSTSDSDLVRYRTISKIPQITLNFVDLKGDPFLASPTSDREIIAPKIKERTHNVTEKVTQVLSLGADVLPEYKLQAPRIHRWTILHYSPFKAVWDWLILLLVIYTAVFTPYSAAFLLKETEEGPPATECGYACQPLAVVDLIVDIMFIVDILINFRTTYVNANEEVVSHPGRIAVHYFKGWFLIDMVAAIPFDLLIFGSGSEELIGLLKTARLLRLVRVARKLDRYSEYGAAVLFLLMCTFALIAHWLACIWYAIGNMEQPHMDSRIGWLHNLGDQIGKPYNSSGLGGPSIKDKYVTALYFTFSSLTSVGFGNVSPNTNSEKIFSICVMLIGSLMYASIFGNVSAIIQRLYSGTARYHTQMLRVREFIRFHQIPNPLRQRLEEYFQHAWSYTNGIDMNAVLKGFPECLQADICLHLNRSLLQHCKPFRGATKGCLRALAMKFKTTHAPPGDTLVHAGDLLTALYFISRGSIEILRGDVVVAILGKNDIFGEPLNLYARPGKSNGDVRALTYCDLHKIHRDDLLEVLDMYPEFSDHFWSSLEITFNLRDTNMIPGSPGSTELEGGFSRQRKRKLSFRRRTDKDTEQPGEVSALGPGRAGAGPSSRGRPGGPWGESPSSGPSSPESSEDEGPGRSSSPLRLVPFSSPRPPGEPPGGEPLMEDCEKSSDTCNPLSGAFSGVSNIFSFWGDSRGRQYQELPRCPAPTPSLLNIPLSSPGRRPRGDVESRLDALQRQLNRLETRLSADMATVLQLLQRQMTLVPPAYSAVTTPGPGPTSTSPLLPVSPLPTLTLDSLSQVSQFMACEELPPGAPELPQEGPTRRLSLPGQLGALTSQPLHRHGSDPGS", "experiment": "Inhibition of human ERG expressed in CHO cells by automated patch clamp electrophysiology", "assay_type": "cell-based"}, "Cytochrome P450 3A4": {"biological_target": "Cytochrome P450 3A4 (Homo sapiens, UniProt P08684)", "sequence (P08684 whole entry)": "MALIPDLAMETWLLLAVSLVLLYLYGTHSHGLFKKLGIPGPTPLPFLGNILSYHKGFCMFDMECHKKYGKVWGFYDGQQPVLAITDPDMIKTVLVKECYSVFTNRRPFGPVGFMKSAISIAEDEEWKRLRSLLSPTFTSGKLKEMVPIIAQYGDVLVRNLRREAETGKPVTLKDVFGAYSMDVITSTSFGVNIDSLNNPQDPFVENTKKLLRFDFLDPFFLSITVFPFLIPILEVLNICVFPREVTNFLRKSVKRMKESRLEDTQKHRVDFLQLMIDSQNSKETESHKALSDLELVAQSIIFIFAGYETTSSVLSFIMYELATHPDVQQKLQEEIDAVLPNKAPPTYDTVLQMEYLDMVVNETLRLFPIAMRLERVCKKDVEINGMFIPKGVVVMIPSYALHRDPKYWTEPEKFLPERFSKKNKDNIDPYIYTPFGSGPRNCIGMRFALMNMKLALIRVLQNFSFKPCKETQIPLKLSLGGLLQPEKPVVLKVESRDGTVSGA", "experiment": "Inhibition of human CYP3A4", "assay_type": "ADME"}, "[25]": {"biological_target": "High affinity cAMP-specific and IBMX-insensitive 3',5'-cyclic phosphodiesterase 8A (Homo sapiens, UniProt O60658)", "sequence (O60658 whole entry, the tested form may be a part)": "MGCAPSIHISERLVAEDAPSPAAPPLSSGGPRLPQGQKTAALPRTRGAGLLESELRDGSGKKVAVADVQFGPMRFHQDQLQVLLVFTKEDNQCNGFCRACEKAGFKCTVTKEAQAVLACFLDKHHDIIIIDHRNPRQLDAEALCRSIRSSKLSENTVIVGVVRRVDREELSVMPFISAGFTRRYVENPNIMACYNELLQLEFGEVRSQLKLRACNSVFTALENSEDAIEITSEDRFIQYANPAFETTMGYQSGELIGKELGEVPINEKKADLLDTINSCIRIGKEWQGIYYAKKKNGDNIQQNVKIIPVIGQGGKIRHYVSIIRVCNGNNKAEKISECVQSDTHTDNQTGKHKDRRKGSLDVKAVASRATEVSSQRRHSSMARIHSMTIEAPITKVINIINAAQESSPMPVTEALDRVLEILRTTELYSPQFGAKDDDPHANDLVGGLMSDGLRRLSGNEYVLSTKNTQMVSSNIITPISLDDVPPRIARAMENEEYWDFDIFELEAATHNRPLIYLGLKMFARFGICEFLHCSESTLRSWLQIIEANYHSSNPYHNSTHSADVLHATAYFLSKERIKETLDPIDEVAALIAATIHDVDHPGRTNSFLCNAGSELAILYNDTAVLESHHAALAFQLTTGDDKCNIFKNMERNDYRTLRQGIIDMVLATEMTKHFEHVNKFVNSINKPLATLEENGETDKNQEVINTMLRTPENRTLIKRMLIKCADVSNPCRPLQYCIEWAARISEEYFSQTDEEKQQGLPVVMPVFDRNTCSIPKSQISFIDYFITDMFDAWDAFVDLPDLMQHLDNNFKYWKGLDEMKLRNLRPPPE", "experiment": "Inhibition of human PDE8A1 (480 to 820 residues) expressed in Escherichia coli BL21 codon-plus cells using [3H]cAMP as substrate incubated for 15 mins by liquid scintillation counting method"}, "[26]": {"biological_target": "cGMP-dependent 3',5'-cyclic phosphodiesterase (Homo sapiens, UniProt O00408)", "sequence (O00408 whole entry, the tested form may be a part)": "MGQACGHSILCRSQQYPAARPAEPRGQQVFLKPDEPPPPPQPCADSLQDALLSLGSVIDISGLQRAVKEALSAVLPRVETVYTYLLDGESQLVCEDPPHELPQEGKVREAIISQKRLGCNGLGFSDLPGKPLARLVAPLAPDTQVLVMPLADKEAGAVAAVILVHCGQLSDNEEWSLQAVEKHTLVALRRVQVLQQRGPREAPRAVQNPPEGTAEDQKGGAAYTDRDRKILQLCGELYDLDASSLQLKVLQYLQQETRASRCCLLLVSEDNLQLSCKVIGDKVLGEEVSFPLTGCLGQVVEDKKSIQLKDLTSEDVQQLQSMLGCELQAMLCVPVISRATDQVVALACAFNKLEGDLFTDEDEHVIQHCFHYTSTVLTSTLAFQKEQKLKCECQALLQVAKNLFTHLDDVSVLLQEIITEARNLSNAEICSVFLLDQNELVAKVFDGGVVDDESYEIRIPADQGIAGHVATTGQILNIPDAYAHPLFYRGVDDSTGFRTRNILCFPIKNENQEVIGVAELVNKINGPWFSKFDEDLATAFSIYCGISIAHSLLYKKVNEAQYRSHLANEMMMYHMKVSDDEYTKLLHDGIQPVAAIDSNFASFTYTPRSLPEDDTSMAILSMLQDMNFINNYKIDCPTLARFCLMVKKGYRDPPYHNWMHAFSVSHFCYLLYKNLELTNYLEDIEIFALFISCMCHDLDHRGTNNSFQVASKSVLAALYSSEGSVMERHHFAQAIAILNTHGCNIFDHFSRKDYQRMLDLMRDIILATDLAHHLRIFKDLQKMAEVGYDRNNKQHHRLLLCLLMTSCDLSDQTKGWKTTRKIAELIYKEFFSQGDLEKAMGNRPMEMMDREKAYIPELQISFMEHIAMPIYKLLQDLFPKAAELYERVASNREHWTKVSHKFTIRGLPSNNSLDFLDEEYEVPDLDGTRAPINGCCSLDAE", "experiment": "Inhibition of human PDE2A (580 to 919 residues) expressed in Escherichia coli BL21 codon-plus cells using [3H]cGMP as substrate incubated for 15 mins by liquid scintillation counting method"}, "[27]": {"biological_target": "cGMP-inhibited 3',5'-cyclic phosphodiesterase 3A (Homo sapiens, UniProt Q14432)", "sequence (Q14432 whole entry, the tested form may be a part)": "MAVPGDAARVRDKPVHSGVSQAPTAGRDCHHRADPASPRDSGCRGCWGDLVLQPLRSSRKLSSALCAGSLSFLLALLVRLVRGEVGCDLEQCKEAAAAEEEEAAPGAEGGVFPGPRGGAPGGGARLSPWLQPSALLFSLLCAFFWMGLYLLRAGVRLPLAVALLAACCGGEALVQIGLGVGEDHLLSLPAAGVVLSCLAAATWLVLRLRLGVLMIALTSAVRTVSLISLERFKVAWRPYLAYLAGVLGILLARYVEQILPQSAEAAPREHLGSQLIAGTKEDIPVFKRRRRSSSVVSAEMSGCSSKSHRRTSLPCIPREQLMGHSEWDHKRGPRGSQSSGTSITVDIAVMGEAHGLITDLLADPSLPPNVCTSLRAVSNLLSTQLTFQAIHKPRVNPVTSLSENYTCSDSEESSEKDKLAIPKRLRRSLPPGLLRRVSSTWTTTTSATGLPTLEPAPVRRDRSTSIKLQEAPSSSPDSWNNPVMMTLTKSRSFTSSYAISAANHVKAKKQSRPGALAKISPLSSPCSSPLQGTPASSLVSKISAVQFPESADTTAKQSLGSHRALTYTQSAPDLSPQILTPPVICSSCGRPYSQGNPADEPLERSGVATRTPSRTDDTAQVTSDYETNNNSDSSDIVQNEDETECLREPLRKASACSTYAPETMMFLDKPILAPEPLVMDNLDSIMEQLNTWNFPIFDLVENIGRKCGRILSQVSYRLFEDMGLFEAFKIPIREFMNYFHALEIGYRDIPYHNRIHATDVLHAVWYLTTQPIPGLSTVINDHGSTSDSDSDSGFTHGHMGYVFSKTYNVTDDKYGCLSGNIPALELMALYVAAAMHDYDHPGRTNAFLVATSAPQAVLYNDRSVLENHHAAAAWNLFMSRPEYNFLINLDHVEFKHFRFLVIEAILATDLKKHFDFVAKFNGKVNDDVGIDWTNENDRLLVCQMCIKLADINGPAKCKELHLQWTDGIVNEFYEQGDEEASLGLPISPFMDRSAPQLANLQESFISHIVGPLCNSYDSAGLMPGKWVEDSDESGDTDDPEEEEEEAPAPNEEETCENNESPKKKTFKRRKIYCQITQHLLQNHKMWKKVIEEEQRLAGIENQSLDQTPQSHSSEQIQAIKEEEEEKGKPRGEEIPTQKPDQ", "experiment": "Inhibition of human PDE3A (679 to 1087 residues) expressed in Escherichia coli BL21 codon-plus cells using [3H]cAMP as substrate incubated for 15 mins by liquid scintillation counting method"}, "[28]": {"experiment": "Acute toxicity in Kunming mouse at >=1.5 g/kg, po administered as single dose and measured for 14 days", "assay_type": "organism-based", "details": "in vivo, 1500 mg/kg, 336 h"}, "Cytochrome P450 1A2": {"biological_target": "Cytochrome P450 1A2 (Homo sapiens, UniProt P05177)", "experiment": "Inhibition of human CYP1A2", "assay_type": "ADME"}, "[29]": {"experiment": "Tmax in Sprague-Dawley rat at 2.5 mg/kg, iv measured upto 24 hrs by LC-MS/MS analysis", "assay_type": "ADME, organism-based", "details": "in vivo"}},
  "note": "The source made the active and inactive calls. No cut-off for these calls is given here.",
  "data": [
    {"molecule": "COc1c(OCCCCCCC(=O)O)cc2oc3cc4c(c(O)c3c(=O)c2c1CC=C(C)C)C=CC(C)(C)O4", "values": [
      {"measurement": "Activity", "setting": "RAW264.7", "value": "Dose-dependent effect"},
      {"measurement": "AUC(0-t) at 24 h", "setting": "[1]", "value": 6670, "unit": "ng·h/mL"},
      {"measurement": "Cmax", "setting": "[2]", "value": 14100, "unit": "ng/mL"},
      {"measurement": "Activity", "setting": "[3]", "value": 0, "unit": "%"},
      {"measurement": "Ratio IC50", "setting": "Homo sapiens [4]", "value": "> 580"},
      {"measurement": "AUC(0-inf)", "setting": "[5]", "value": 6710, "unit": "ng·h/mL"},
      {"measurement": "Ratio IC50", "setting": "Homo sapiens [6]", "value": "> 580"},
      {"measurement": "Ratio IC50", "setting": "Homo sapiens [7]", "value": 36},
      {"measurement": "half-life", "setting": "[8]", "value": 4.28, "unit": "h"},
      {"measurement": "Ratio IC50", "setting": "Homo sapiens [9]", "value": "> 580"},
      {"measurement": "Activity", "setting": "Mus musculus [10]", "value": "Active"},
      {"measurement": "Activity", "setting": "[11]", "value": 0, "unit": "%"},
      {"measurement": "Tmax", "setting": "[12]", "value": 4.67, "unit": "h"},
      {"measurement": "IC50", "setting": "[13]", "value": "> 10", "unit": "µM"},
      {"measurement": "Ratio IC50", "setting": "Homo sapiens [14]", "value": "> 580"},
      {"measurement": "Ratio IC50", "setting": "Homo sapiens [15]", "value": "> 580"},
      {"measurement": "IC50", "setting": "Cytochrome P450 2B6", "value": "> 10", "unit": "µM"},
      {"measurement": "IC50", "setting": "[16]", "value": "> 10", "unit": "µM"},
      {"measurement": "IC50", "setting": "[17]", "value": 0.62, "unit": "µM"},
      {"measurement": "AUC(0-inf)", "setting": "[18]", "value": 4790, "unit": "ng·h/mL"},
      {"measurement": "bioavailability", "setting": "[19]", "value": 28, "unit": "%"},
      {"measurement": "Activity", "setting": "Mus musculus [20]", "value": "Active"},
      {"measurement": "IC50", "setting": "[21]", "value": 0.009, "unit": "µM"},
      {"measurement": "Ratio IC50", "setting": "Homo sapiens [22]", "value": 199},
      {"measurement": "fraction unbound at 1 µM", "setting": "[23]", "value": 0.01},
      {"measurement": "IC50", "setting": "[24]", "value": "> 30", "unit": "µM"},
      {"measurement": "IC50", "setting": "Cytochrome P450 3A4", "value": "> 10", "unit": "µM"},
      {"measurement": "IC50", "setting": "[25]", "value": "> 10", "unit": "µM"},
      {"measurement": "IC50", "setting": "[26]", "value": "> 10", "unit": "µM"},
      {"measurement": "IC50", "setting": "[27]", "value": "> 10", "unit": "µM"},
      {"measurement": "Activity", "setting": "[28]", "value": "Non-Toxic"},
      {"measurement": "IC50", "setting": "Cytochrome P450 1A2", "value": "> 10", "unit": "µM"},
      {"measurement": "Tmax", "setting": "[29]", "value": 4.98, "unit": "min"}
    ]}
  ]
}
